From patent US9321785B2, “Methods for the treatment or prophylaxis of thrombosis or embolism” (IPCA Laboratories Limited, priority 2010, dated 2016)
Read-outs that look alike come from different tables or passages of the source.

Assays:
[1] = system: recurrent ischemic events / major bleeding events; conditions: cited from earlier work
[2] = system: ADP induced platelet aggregation; conditions: cited from earlier work; for Time until 50% inhibition of ADP induced platelet aggregation is reached: 5 μM ADP ex vivo, LTA
[3] = rat; cited from earlier work
[4] = cited from earlier work
[5] = Activity of clopidogrel metabolite; conditions: metabolite in the clopidogrel pathway
From the text: Thus, the influence that the patient's ability to metabolize has on efficacy is reduced.

[6] = system: ADP induced platelet aggregation (platelet-rich plasma); assay: Measurement of platelet aggregation with ADP, ex vivo after oral administration; assay type: in vivo, rat; conditions: 2 h before sampling, ADP 2.5 μM
Experimental: The platelet aggregation inhibiting activities and the antithrombotic activities of the compounds were studied in the rat by standard methods. The activity on the aggregation of plates induced by ADP or collagen was determined ex-vivo. […] The aggregating solutions used were: a 500 μM aqueous solution of ADP (final concentration 2.5 μM). The aggregation of the platelets was monitored as described by Born (Nature 194, p. 927 […]), which is incorporated herein by reference, using a Coultronics® aggregometer at a temperature of 37° C. and agitation of 900 rpm. For aggregation with ADP, the aggregometer generates a curve representing a platelet aggregation as measured by a change in optical density. The height of this curve is defined as the height of aggregation. […] The controls are without drug.

[7] = system: venous thrombus in vena cava; assay: Venous thrombosis on a screw thread (antithrombotic activity); assay type: in vivo, rat; conditions: for % inhibition / Weight of thrombus: thrombus after 5 h
From the text: The antithrombotic activity has also been studied in the test of venous thrombosis on a screw thread described by Kumada T. et al. in Thromb. Res 18 p. 189 (1980). Female rats of the same type as those previously described, in groups of 10 animals, were anesthetized with diethyl ether and their vena cava was isolated after abdominal incision. […] The thrombi formed rapidly and five hours later, under pentobarbital anesthesia, the abdomen is reopened and ligatures are placed above and below the screw thread which is withdrawn after longitudinal incision of the vein and the isolated thrombus is weighed. […] The control is without drug.

[8] = combined with Aspirin therapy, patients with ACS
[9] = patients at high risk of vascular events

## COC(=O)[C@H](c1ccccc1Cl)N1CCc2sccc2C1 [Clopidogrel, (+)-(S)-methyl 2-(2-chlorophenyl)-2-(6,7-dihydrothieno[3,2-c]pyridin-5(4H)-yl)acetate]
[1]; [8]
  Absolute risk reduction (ARR), recurrent ischemic events: about 2.1%
  Further reduction of the risk of recurrent ischemic events: 20%
[2]; dose 600 mg
  Time until 50% inhibition of ADP induced platelet aggregation is reached: 2 h
[2]; dose 900 mg, 5 μM ADP
  Inhibition of ADP induced platelet aggregation: 60%
[2]; dose 900 mg, 20 μM ADP ex vivo
  Inhibition of platelet aggregation: less than 50%
[2]; loading dose 300 mg
  Time until 50% inhibition of ADP induced platelet aggregation is reached: 4 to 6 h
[3]
  Lethal dose: about 5000 mg per kg
[4]
  Fraction converted to clopidogrel acid in vivo: 90%

## O=C(O)[C@H](c1ccccc1Cl)N1CCc2sccc2C1 [Formula IV]
[5]
  Activity of the metabolite: inactive

## COC(=O)[C@H](c1ccccc1Cl)N1CCc2sccc2C1 [Clopidogrel bisulphate]
[6]; Rattus norvegicus, Platelet, oral dose 12.5 mg/kg (base 9.813 mg/kg)
  inhibition at 12.5 mg/kg: 82%
[6]; Rattus norvegicus, Platelet, oral dose 25 mg/kg (base 19.225 mg/kg)
  inhibition at 25 mg/kg: 89%
[6]; oral dose 12.5 mg/kg (base 9.813 mg/kg), control 103 ± 3
  % aggregation (height): 19 ± 4%
[6]; oral dose 25 mg/kg (base 19.225 mg/kg), control 103 ± 3
  % aggregation (height): 11 ± 1%
[7]; dose 10 mg/kg (base 7.69 mg/kg)
  % inhibition: 67%
[7]; dose 10 mg/kg (base 7.69 mg/kg), control 3.9 ± 0.3
  Weight of thrombus: 1.26 ± 0.19 mg
[7]; dose 20 mg/kg (base 15.38 mg/kg)
  % inhibition: 69%
[7]; dose 20 mg/kg (base 15.38 mg/kg), control 3.9 ± 0.3
  Weight of thrombus: 1.20 ± 0.13 mg

## CC(=O)Oc1ccccc1C(=O)O [Aspirin]
[1]; [9]
  Absolute risk increase (ARI), major bleeding events: about 0.5%
  Absolute risk reduction (ARR), recurrent ischemic events: about 2%
  Increase in the odds of major bleeding events: about 60%
  Reduction of the risk of recurrent ischemic events: 22%

## COC(=O)[C@H](c1ccccc1Cl)N1CCC2SC(=O)C=C2C1 (stereo partly drawn) [Thiolactone, Methyl(S)-2(2-chlorophenyl)-2-(2,4,5,6,7,7a-hexahydrothieno[3,2-c]-5-pyridin-2-one)acetate]
[6]; Rattus norvegicus, Platelet, oral dose 2.5 mg/kg (base 2.5 mg/kg)
  inhibition at 2.5 mg/kg: 95%
[6]; oral dose 2.5 mg/kg (base 2.5 mg/kg), control 94 ± 1
  % aggregation (height): 4 ± 2%
[7]; Table 2
  Antithrombotic activity compared with clopidogrel: superior to clopidogrel
[7]; dose 12.5 mg/kg (base 12.5 mg/kg)
  % inhibition: 76%
[7]; dose 12.5 mg/kg (base 12.5 mg/kg), control 4.18 ± 0.31
  Weight of thrombus: 1.18 ± 0.18 mg
